This is an account of results in US10604554B2, “Double-acylated GLP-1 derivatives” (Novo Nordisk A/S, priority 2012, dated 2020).

For one series, the target named is T1, human GLP-1 receptor (Homo sapiens, UniProt P43220).
T1 construct: expressed in transfected cells; host or cells: BHK cells, clone FCW467-12A/KZ10-1 (parent line BHKTS13), further transfected with CRE luciferase
The experiment in a line: In vitro potency (AlphaScreen cAMP, membranes). Format: biochemical. On the procedure:
The purpose of this example is to test the activity, or potency, of the GLP-1 derivatives in vitro.
Purified plasma membranes from a stable transfected cell line, BHK467-12A (tk-ts13), expressing the human GLP-1 receptor were stimulated with the GLP-1 analogue or derivative in question, and the potency of cAMP production was measured using the AlphaScreen™ cAMP Assay Kit from Perkin Elmer Life Sciences. The basic principle of the AlphaScreen Assay is a competition between endogenous cAMP and exogenously added biotin-cAMP. The capture of cAMP is achieved by using a specific antibody conjugated to acceptor beads.
A stable transfected cell line and a high expressing clone were selected for screening. The cells were grown at 5% CO2 in DMEM, 5% FCS, 1% Pen/Strep (Penicillin/Streptomycin) and 0.5 mg/ml of the selection marker G418.
Cells at approximately 80% confluence were washed 2× with PBS and harvested with Versene (aqueous solution of the tetrasodium salt of ethylenediaminetetraacetic acid), centrifuged 5 min at 1000 rpm and the supernatant removed. The additional steps were all performed on ice. The cell pellet was homogenised by the Ultrathurax for 20-30 s in 10 ml of Buffer 1 (20 mM Na-HEPES, 10 mM EDTA, pH=7.4), centrifuged 15 min at 20,000 rpm and the pellet resuspended in 10 ml of Buffer 2 (20 mM Na-HEPES, 0.1 mM EDTA, pH=7.4). The suspension was homogenised for 20-30 s and centrifuged 15 min at 20,000 rpm. Suspension in Buffer 2, homogenisation and centrifugation was repeated once and the membranes were resuspended in Buffer 2. The protein concentration was determined and the membranes stored at −80° C. until use.
The assay was performed in flat-bottom 96-well plates (Costar cat. no:3693). The final volume per well was 50 μl.
AlphaScreen cAMP Assay Kit from Perkin Elmer Life Sciences (cat. No: 6760625M); containing Anti-cAMP Acceptor beads (10 U/μl), Streptavidin Donor beads (10 U/μl) and Biotinylated-cAMP (133 U/μl).
AlphaScreen Buffer, pH=7.4: 50 mM TRIS-HCl (Sigma, cat.no: T3253); 5 mM HEPES (Sigma, cat.no: H3375); 10 mM MgCl2, 6H2O (Merck, cat.no: 5833); 150 mM NaCl (Sigma, cat.no: S9625); 0.01% Tween (Merck, cat.no: 822184). The following was added to the AlphaScreen Buffer prior to use (final concentrations indicated): BSA (Sigma, cat. no. A7906): 0.1%; IBMX (Sigma, cat. no. 15879): 0.5 mM; ATP (Sigma, cat. no. A7699): 1 mM; GTP (Sigma, cat. no. G8877): 1 uM.
cAMP standard (dilution factor in assay=5): cAMP Solution: 5 μL of a 5 mM cAMP-stock+495 μL AlphaScreen Buffer.
Membranes were prepared from hGLP-1/BHK 467-12A cells with a concentration of 6 μg/well corresponding to 0.6 mg/ml (the amount of membranes used pr. well may vary)
“No membranes”: Acceptor Beads (15 μg/ml final) in AlphaScreen buffer
“6 μg/well membranes”: membranes+Acceptor Beads (15 μg/ml final) in AlphaScreen buffer
An aliquot (10 μl) of “No membranes” was added to the cAMP standard (per well in duplicate wells) and the positive and negative controls
An aliquot (10 μl) of “6 μg/well membranes” was added to GLP-1 and analogues (per well in duplicate or triplicate wells)
Pos. Control: 10 μl “no membranes”+10 μl AlphaScreen Buffer
Neg. Control: 10 μl “no membranes”+10 μl cAMP Stock Solution (50 μM)
As the beads are sensitive to direct light, any handling was in the dark (as dark as possible), or in green light. All dilutions were made on ice.
1. Make the AlphaScreen Buffer.
2. Dissolve and dilute the GLP-1/Analogues/cAMP standard in AlphaScreen Buffer.
3. Make the Donor Beads Solution by mixing streptavidin donor beads (2 units/well) and biotinylated cAMP (1.2 units/well) and incubate 20-30 min in the dark at room temperature
4. Add the cAMP/GLP-1/Analogues to the plate: 10 μl per well.
5. Prepare membrane/Acceptor Beads solution and add this to the plates: 10 μl per well.
6. Add the Donor Beads: 30 μl per well.
7. Wrap the plate in aluminum foil and incubate on the shaker for 3 hours (very slowly) at RT.
A general note: In Alpha technology, singlet oxygen from a donor bead excites a nearby acceptor bead.

The nature of series [1]: Pharmacokinetic (PK) study in rat. The settings on record: male, Sprague Dawley, in vivo, iv, 6 nmol/kg.
Setting [2] is: cAMP formation in membranes from BHK467-12A cells expressing human GLP-1 receptor, read-out: In vitro potency (AlphaScreen) EC50.

Read-outs that look alike come from different tables or passages of the source. Numbered stars: 1 amine (or outer) side, 2 acyl side, 3 side chain; on linkers, the order of the positions; unused ones are H or OH. Square brackets hold non-standard residues; d marks the D form. Side chains are listed from the residue outwards. Peptide text beside a SMILES is read from it. * marks the point of attachment. C18 diacid = O=C(O)CCCCCCCCCCCCCCCCC(=O)*; γGlu = O=C(O)[C@H](CCC(=O)[*:2])N[*:1]; εLys = N[C@@H](CCCCN[*:1])C(=O)[*:2]; AEEA = NCCOCCOCC(=O)O; Aib = CC(C)(N)C(=O)O

T1 sequence (P43220 24-463): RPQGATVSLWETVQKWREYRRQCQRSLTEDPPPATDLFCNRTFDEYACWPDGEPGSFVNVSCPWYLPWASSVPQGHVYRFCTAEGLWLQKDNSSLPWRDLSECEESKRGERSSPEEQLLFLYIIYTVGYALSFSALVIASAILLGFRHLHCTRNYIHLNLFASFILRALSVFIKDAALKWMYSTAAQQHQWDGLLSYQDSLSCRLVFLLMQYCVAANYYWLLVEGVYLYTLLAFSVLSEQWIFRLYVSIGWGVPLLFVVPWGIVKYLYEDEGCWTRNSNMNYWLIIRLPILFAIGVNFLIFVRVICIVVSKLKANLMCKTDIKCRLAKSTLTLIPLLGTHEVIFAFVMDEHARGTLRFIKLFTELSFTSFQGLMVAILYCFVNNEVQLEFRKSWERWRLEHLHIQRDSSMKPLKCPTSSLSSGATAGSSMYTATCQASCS

One may read the EC50 as the concentration giving half of the maximal effect. Broadly, the half-life is how long it takes for the measured level to halve. With `CC[C@H](C)[C@H](NC(=O)[C@H](Cc1ccccc1)NC(=O)[C@H](CCC(=O)O)NC(=O)[C@H](CCCCNC(=O)[C@@H](N)CCCCNC(=O)[C@@H](N)CCCCNC(=O)CC[C@H](NC(=O)CCCCCCCCCOc1ccc(C(=O)O)cc1)C(=O)O)NC(=O)[C@H](C)NC(=O)[C@H](C)NC(=O)[C@H](CCC(N)=O)NC(=O)CNC(=O)[C@H](CCC(=O)O)NC(=O)[C@H](CC(C)C)NC(=O)[C@H](Cc1ccc(O)cc1)NC(=O)[C@H](CO)NC(=O)[C@H](CO)NC(=O)[C@@H](NC(=O)[C@H](CC(=O)O)NC(=O)[C@H](CO)NC(=O)[C@@H](NC(=O)[C@H](Cc1ccccc1)NC(=O)[C@@H](NC(=O)CNC(=O)[C@H](CCC(=O)O)NC(=O)C(C)(C)NC(=O)[C@@H](N)Cc1c[nH]cn1)[C@@H](C)O)[C@@H](C)O)C(C)C)C(=O)N[C@@H](C)C(=O)N[C@@H](Cc1c[nH]c2ccccc12)C(=O)N[C@@H](CC(C)C)C(=O)N[C@H](C(=O)N[C@@H](CCCNC(=N)N)C(=O)NCC(=O)N[C@@H](CCCNC(=N)N)C(=O)N[C@@H](CCCCNC(=O)[C@@H](N)CCCCNC(=O)[C@@H](N)CCCCNC(=O)CC[C@H](NC(=O)CCCCCCCCCOc1ccc(C(=O)O)cc1)C(=O)O)C(=O)O)C(C)C` [Example 1, N^ε26-[(2S)-2-amino-6-[[(2S)-2-amino-6-[[(4S)-4-carboxy-4-[10-(4-carboxyphenoxy)decanoylamino]butanoyl]amino]hexanoyl]amino]hexanoyl], N^ε37-[(2S)-2-amino-6-[[(2S)-2-amino-6-[[(4S)-4-carboxy-4-[10-(4-carboxyphenoxy)decanoylamino]butanoyl]amino]hexanoyl]amino]hexanoyl]-[Aib^8, Arg^34,Lys^37]-GLP-1-(7-37)-peptide], it took 59 pM to reach a half-maximal effect at human GLP-1 receptor (EC50). This compound also showed a half-life in series [1] of 14 h. Turning to `CC[C@H](C)[C@H](NC(=O)[C@H](Cc1ccccc1)NC(=O)[C@H](CCC(=O)O)NC(=O)[C@H](CCCCNC(=O)[C@@H](N)CCCCNC(=O)[C@@H](N)CCCCNC(=O)CC[C@H](NC(=O)CCCCCCCCCCCCC(=O)O)C(=O)O)NC(=O)[C@H](C)NC(=O)[C@H](C)NC(=O)[C@H](CCC(N)=O)NC(=O)CNC(=O)[C@H](CCC(=O)O)NC(=O)[C@H](CC(C)C)NC(=O)[C@H](Cc1ccc(O)cc1)NC(=O)[C@H](CO)NC(=O)[C@H](CO)NC(=O)[C@@H](NC(=O)[C@H](CC(=O)O)NC(=O)[C@H](CO)NC(=O)[C@@H](NC(=O)[C@H](Cc1ccccc1)NC(=O)[C@@H](NC(=O)CNC(=O)[C@H](CCC(=O)O)NC(=O)C(C)(C)NC(=O)[C@@H](N)Cc1c[nH]cn1)[C@@H](C)O)[C@@H](C)O)C(C)C)C(=O)N[C@@H](C)C(=O)N[C@@H](Cc1c[nH]c2ccccc12)C(=O)N[C@@H](CC(C)C)C(=O)N[C@H](C(=O)N[C@@H](CCCNC(=N)N)C(=O)NCC(=O)N[C@@H](CCCNC(=N)N)C(=O)N[C@@H](CCCCNC(=O)[C@@H](N)CCCCNC(=O)[C@@H](N)CCCCNC(=O)CC[C@H](NC(=O)CCCCCCCCCCCCC(=O)O)C(=O)O)C(=O)O)C(C)C` [Example 2, N^ε26-[(2S)-2-amino-6-[[(2S)-2-amino-6-[[(4S)-4-carboxy-4-(13-carboxytridecanoylamino)butanoyl]amino]hexanoyl]amino]hexanoyl], N^ε37-[(2S)-2-amino-6-[[(2S)-2-amino-6-[[(4S)-4-carboxy-4-(13-carboxytridecanoylamino)butanoyl]amino]hexanoyl]amino]hexanoyl]-[Aib^8,Arg^34,Lys^37]-GLP-1-(7-37)-peptide], at human GLP-1 receptor (setting [2]), the EC50 turned out to be 44 pM. The compound `CC[C@H](C)[C@H](NC(=O)[C@H](Cc1ccccc1)NC(=O)[C@H](CCC(=O)O)NC(=O)[C@H](CCCCNC(=O)[C@@H](N)CCCCNC(=O)COCCOCCNC(=O)COCCOCCNC(=O)CC[C@H](NC(=O)CCCCCCCCCOc1ccc(C(=O)O)cc1)C(=O)O)NC(=O)[C@H](C)NC(=O)[C@H](C)NC(=O)[C@H](CCC(N)=O)NC(=O)CNC(=O)[C@H](CCC(=O)O)NC(=O)[C@H](CC(C)C)NC(=O)[C@H](Cc1ccc(O)cc1)NC(=O)[C@H](CO)NC(=O)[C@H](CO)NC(=O)[C@@H](NC(=O)[C@H](CC(=O)O)NC(=O)[C@H](CO)NC(=O)[C@@H](NC(=O)[C@H](Cc1ccccc1)NC(=O)[C@@H](NC(=O)CNC(=O)[C@H](CCC(=O)O)NC(=O)C(C)(C)NC(=O)[C@@H](N)Cc1c[nH]cn1)[C@@H](C)O)[C@@H](C)O)C(C)C)C(=O)N[C@@H](C)C(=O)N[C@@H](Cc1c[nH]c2ccccc12)C(=O)N[C@@H](CC(C)C)C(=O)N[C@H](C(=O)N[C@@H](CCCNC(=N)N)C(=O)NCC(=O)N[C@@H](CCCNC(=N)N)C(=O)N[C@@H](CCCCNC(=O)[C@@H](N)CCCCNC(=O)COCCOCCNC(=O)COCCOCCNC(=O)CC[C@H](NC(=O)CCCCCCCCCOc1ccc(C(=O)O)cc1)C(=O)O)C(=O)O)C(C)C` [Example 5] gave an EC50 on human GLP-1 receptor of 33 pM. Take `CC[C@H](C)[C@H](NC(=O)[C@H](Cc1ccccc1)NC(=O)[C@H](CCC(=O)O)NC(=O)[C@H](CCCCNC(=O)[C@@H](N)CCCCNC(=O)COCCOCCNC(=O)COCCOCCNC(=O)CC[C@H](NC(=O)CCCCCCCCCCCCCCCCC(=O)O)C(=O)O)NC(=O)[C@H](C)NC(=O)[C@H](C)NC(=O)[C@H](CCC(N)=O)NC(=O)[C@H](CCC(=O)O)NC(=O)[C@H](CCC(=O)O)NC(=O)[C@H](CC(C)C)NC(=O)[C@H](Cc1ccc(O)cc1)NC(=O)[C@H](CO)NC(=O)[C@H](CO)NC(=O)[C@@H](NC(=O)[C@H](CC(=O)O)NC(=O)[C@H](CO)NC(=O)[C@@H](NC(=O)[C@H](Cc1ccccc1)NC(=O)[C@@H](NC(=O)CNC(=O)[C@H](CCC(=O)O)NC(=O)C(C)(C)NC(=O)[C@@H](N)Cc1c[nH]cn1)[C@@H](C)O)[C@@H](C)O)C(C)C)C(=O)N[C@@H](C)C(=O)N[C@@H](Cc1c[nH]c2ccccc12)C(=O)N[C@@H](CC(C)C)C(=O)N[C@H](C(=O)N[C@@H](CCC(N)=O)C(=O)NCC(=O)N[C@@H](CCCNC(=N)N)C(=O)N[C@@H](CCCCNC(=O)[C@@H](N)CCCCNC(=O)COCCOCCNC(=O)COCCOCCNC(=O)CC[C@H](NC(=O)CCCCCCCCCCCCCCCCC(=O)O)C(=O)O)C(=O)O)C(C)C` [Example 28, N^ε26-[(2S)-2-amino-6-[[2-[2-[2-[[2-[2-[2-[[(4S)-4-carboxy-4-(17-carboxyheptadecanoylamino)butanoyl]amino]ethoxy]ethoxy]acetyl]amino]ethoxy]ethoxy]acetyl]amino]hexanoyl], N^ε37-[(2S)-2-amino-6-[[2-[2-[2-[[2-[2-[2-[[(4S)-4-carboxy-4-(17-carboxyheptadecanoylamino)butanoyl]amino]ethoxy]ethoxy]acetyl]amino]ethoxy]ethoxy]acetyl]amino]hexanoyl]-[Aib^8,Glu^22,Gln^34, Lys^37]-GLP-1-(7-37)-peptide] (H-H[Aib]EGTFTSDVSSYLEEQAAK([εLys-AEEA-AEEA-γGlu-C18 diacid])EFIAWLVQGRK([εLys-AEEA-AEEA-γGlu-C18 diacid])-OH; N-terminus and C-terminus assumed): at human GLP-1 receptor (setting [2]), the EC50 is 7250 pM.
